Row | Structure (SMILES) | melting point [°C]
1 | O=C(Nc1ccc(N2C[C@H]3CN(C(=O)OCc4ccccc4)C[C@H]3C2)cc1)OCc1ccccc1 | 145 to 146
2 | C#CC1(OC(C)=O)CCC2C3CC(=C)C4=CC(=O)CCC4(C)C3CCC21C (stereo not drawn) | 158 to 160
3 | Nc1ccc(Br)cc1C(=O)c1ccccc1 | 109 to 110
4 | COC(=O)NC(CCc1ccc(Cl)cc1)C(=O)O (stereo not drawn) | 113 to 114
5 | CCCCS(=O)(=O)C1(CCCCN2CCC(N3Cc4ccccc4C3=O)CC2)c2ccccc2-c2ccccc21 | 130 to 132
6 | COCn1ncc2cc(-c3nnc(S)o3)ccc21 | > 300
7 | CS(=O)(=O)c1ccc(C(CC2CCCC2)C(=O)O)cc1S(C)(=O)=O (stereo not drawn) | 64 to 68
8 | OC(Cn1cncn1)(Cn1ncnc1S)c1ccc(F)cc1F (stereo not drawn) | 187
9 | CCN(C(C)=O)c1cc([N+](=O)[O-])cc([N+](=O)[O-])c1 | 98 to 100
10 | CN(C)CC1CN(C)C(=S)c2cccnc2O1 (stereo not drawn) | 178 to 179
11 | CCOc1nc(=O)n([C@H]2CS[C@@H](CO)O2)cc1F (relative stereo) | 162 to 164
12 | CCOC(=O)/C(=N\OC12CCC(CC1)CC2)c1csc(N)n1 | 139 to 140
13 | O=C(NCc1ccccc1)Nc1nnc(C(=O)OCc2ccccc2)s1 | 188 to 192
14 | CCCCOC1OC(CO)C(O)C(O)C1(O)N(CC)C(=O)N(CCCl)N=O (stereo not drawn) | 87 to 89
15 | CCOC(=O)c1ccc(C)c(NC(=O)C2=C(C)OCCS2)c1 | 105 to 107
16 | NC(=O)c1cc(Cl)c(N[C@H]2CC[C@H](N)CC2)cc1F | 160 to 162
17 | O=c1[nH]c2cc(Cl)ccc2c(=O)n1S(=O)(=O)c1ccc(Cl)cc1F | 267 to 268
18 | CCOC(=O)C1C(=O)NC(=O)CC1c1ccc(F)cc1 (stereo not drawn) | 97 to 99
19 | NC(=O)CCC(=NNC(N)=S)c1ccccc1 | 186 to 188
20 | COc1cc2nc(N3CCN(C(=O)C4CCCC4)CC3)nc(N)c2cc1OC | 256 to 259
21 | COC(=O)Nc1ccc2ccccc2c1-c1c(P(c2ccccc2)c2ccccc2)ccc2ccccc12 | 92.1

Now from value to molecule:

Row | melting point [°C] | Structure (SMILES)
22 | 207 to 209 | CC(=O)Nc1cccc(NC(=O)Cc2ccc(-n3c(-c4cccnc4N)nc4ccc(C)nc43)cc2)c1
23 | 105 to 108 | COCCCn1nnnc1-c1cc(-c2cccc(C(=O)OC)c2)c(OCc2ccccc2)cc1OCc1ccccc1
24 | 77 to 78 | CCOC(=O)C(C#N)(CCCN(C)CCc1ccc(OC)c(OC)c1)c1ccc(OC)c(OC)c1 (stereo not drawn)
25 | 91.5 to 92.5 | COc1ccc(C2CCC(=O)N2c2ccc(OC)cc2)cc1 (stereo not drawn)
26 | 83 to 89 | NCCOc1ccc(C(=C(c2ccc(F)cc2)C(F)(F)F)c2ccccc2)cc1
27 | 145 to 146 | Cc1c(CC(=O)O)c2cc(OCc3csc(-c4ccc(Cl)cc4)n3)ccc2n1Cc1ccc(Cl)cc1
28 | 154 | Cc1cc(OCc2sc(-c3ccc(C(F)(F)F)cc3)nc2C)ccc1OC(C)(C)C(=O)O
29 | 157 to 159 | CCOc1cc2nc(NC)nc(-c3cccc(-c4cnc5ccccc5c4)c3)c2cc1OCC
30 | 138 to 140 | CC[C@@H](NC(=O)N1CC(=O)NC[C@@H](Cc2cc(Cl)ccc2OC)C1=O)c1cncc(C(=O)O)c1
31 | 100 to 103 | COc1ccc(-c2nc(-c3ccccn3)cs2)cc1
32 | 105 to 106 | Cc1nnc(COc2ccc([N+](=O)[O-])cc2)o1
33 | 226 to 228 | Cc1nc(-c2ccc(C(F)(F)F)cc2)sc1COc1ccc(/C=C/C(=O)O)cc1
34 | 65 to 66 | Cc1ccc2c(c1)C(c1ccc(C(C)C)cc1)C(C)(C)O2 (stereo not drawn)
35 | 142 to 144 | CC(C)(C)OC(=O)C[C@@H]1C[C@@H](COc2ccc(-c3ccc(C#N)c(F)c3)cc2)NC1=O
36 | 74 to 76 | COc1ccc(Nc2cccc(Cl)n2)cc1
37 | 188 to 189 | COc1cc(C(=O)CC(=O)c2ccccc2O)cc([N+](=O)[O-])c1OC
38 | 118 to 119 | COCOc1ccc(Nc2ncccc2NS(=O)(=O)c2ccc(OC)cc2)cc1

Reference: a melting point compilation (Tetko et al.; mined from patent text by program, amines drawn as free bases though some values may be those of a salt)
